Reference: ChEMBL document CHEMBL5303573, “Mapping human microbiome drug metabolism by gut bacteria and their genes” (Nature, 2019)

Columns and labels:
[1] = The drug is tested on Collinsella intestinalis strain: DSM13280 for biotransformation. The drug concentrations were measured before and after a 12-h incubation by liquid-chromatography-coupled mass spectrometry (LC–MS); settings: 2 µM
[2] = The drug is tested on Bacteroides caccae strain: ATCC43185 for biotransformation. The drug concentrations were measured before and after a 12-h incubation by liquid-chromatography-coupled mass spectrometry (LC–MS); settings: 2 µM
[3] = The drug is tested on Bacteroides finegoldii strain: DSM17565 for biotransformation. The drug concentrations were measured before and after a 12-h incubation by liquid-chromatography-coupled mass spectrometry (LC–MS); settings: 2 µM
[4] = The drug is tested on Bacteroides fragilis strain: ATCC43859 for biotransformation. The drug concentrations were measured before and after a 12-h incubation by liquid-chromatography-coupled mass spectrometry (LC–MS); settings: 2 µM
[5] = The drug is tested on Bacteroides uniformis strain: ATCC8492 for biotransformation. The drug concentrations were measured before and after a 12-h incubation by liquid-chromatography-coupled mass spectrometry (LC–MS); settings: 2 µM
[6] = The drug is tested on Bacteroides sp. WH2 strain: WH2 for biotransformation. The drug concentrations were measured before and after a 12-h incubation by liquid-chromatography-coupled mass spectrometry (LC–MS); settings: bacteroides sp. wh2, 12 h, 2 µM
[7] = The drug is tested on Parabacteroides merdae strain: ATCC43184 for biotransformation. The drug concentrations were measured before and after a 12-h incubation by liquid-chromatography-coupled mass spectrometry (LC–MS); settings: 2 µM
[8] = The drug is tested on Anaerococcus hydrogenalis strain: DSM7454 for biotransformation. The drug concentrations were measured before and after a 12-h incubation by liquid-chromatography-coupled mass spectrometry (LC–MS); settings: 2 µM
[9] = The drug is tested on Anaerotruncus colihominis strain: DSM17241 for biotransformation. The drug concentrations were measured before and after a 12-h incubation by liquid-chromatography-coupled mass spectrometry (LC–MS); settings: 2 µM
[10] = The drug is tested on Clostridium symbiosum strain: ATCC14940 for biotransformation. The drug concentrations were measured before and after a 12-h incubation by liquid-chromatography-coupled mass spectrometry (LC–MS); settings: 2 µM
[11] = The drug is tested on Enterococcus faecalis strain: V583 for biotransformation. The drug concentrations were measured before and after a 12-h incubation by liquid-chromatography-coupled mass spectrometry (LC–MS); settings: 2 µM
[12] = The drug is tested on Subdoligranulum variabile strain: DSM15176 for biotransformation. The drug concentrations were measured before and after a 12-h incubation by liquid-chromatography-coupled mass spectrometry (LC–MS); settings: 2 µM
[13] = The drug is tested on Escherichia coli strain: BW25113 for biotransformation. The drug concentrations were measured before and after a 12-h incubation by liquid-chromatography-coupled mass spectrometry (LC–MS); settings: 2 µM
[14] = The drug is tested on Providencia rettgeri strain: DSM1131 for biotransformation. The drug concentrations were measured before and after a 12-h incubation by liquid-chromatography-coupled mass spectrometry (LC–MS); assay type: ADME; set-up: dose 2 uM, timepoint 0 vs 12 hours; settings: 2 µM
[15] = bacteroides eggerthii, 12 h, 2 µM
Description: The drug is tested on Bacteroides eggerthii strain: DSM20697 for biotransformation. The drug concentrations were measured before and after a 12-h incubation by liquid-chromatography-coupled mass spectrometry (LC–MS)

[16] = bacteroides fragilis, 12 h, 2 µM
Description: The drug is tested on Bacteroides fragilis strain: DS-208 for biotransformation. The drug concentrations were measured before and after a 12-h incubation by liquid-chromatography-coupled mass spectrometry (LC–MS)

[17] = bacteroides thetaiotaomicron, 12 h, 2 µM
Description: The drug is tested on Bacteroides thetaiotaomicron strain: VPI-5482 for biotransformation. The drug concentrations were measured before and after a 12-h incubation by liquid-chromatography-coupled mass spectrometry (LC–MS)

[18] = bacteroides thetaiotaomicron, 12 h, 2 µM; remark: listed apart in the source
Description: The drug is tested on Bacteroides thetaiotaomicron strain: 7330 for biotransformation. The drug concentrations were measured before and after a 12-h incubation by liquid-chromatography-coupled mass spectrometry (LC–MS)

[19] = segatella copri, 12 h, 2 µM
Description: The drug is tested on Prevotella copri strain: DSM18205 for biotransformation. The drug concentrations were measured before and after a 12-h incubation by liquid-chromatography-coupled mass spectrometry (LC–MS)

[20] = limosilactobacillus reuteri cf48-3a, 12 h, 2 µM
Description: The drug is tested on Lactobacillus reuteri CF48-3A strain: BEI HM-102 for biotransformation. The drug concentrations were measured before and after a 12-h incubation by liquid-chromatography-coupled mass spectrometry (LC–MS)

Measured: Bacterial Biotransformation

COc1ccc(C(CN(C)C)C2(O)CCCCC2)cc1 (stereo not given) [VENLAFAXINE]
Compound NOT metabolized: all assays above
